Counter-ions that a name gives are not always drawn.
Columns and labels:
Format in all cases: cell-based, human
ANGM-CSS = assay: cell viability / cytotoxicity by WST-1 colorimetric assay in ANGM-CSS; settings: alone
Experimental: (§1) The cell line ANGM-CSS and U118-MG were used, human glioblastoma multiforme (GBM) lines. The ANGM-CSS cell line (ECACC cat n°08040401) was supplied by Dr. Angelo Notarangelo, Laboratorio di Citogenetica, IRCCS Casa Sollievo della Sofferenza, San Giovanni Rotondo (FG), Italy. The U118-MG line was purchased from ATCC, Manassas, VA, USA. The culture medium consisted of DMEM:HAMS F12 (1:1) (Sigma-Aldrich) with the addition of 2mM of L-Glutamine (Sigma Aldrich), 10% Fetal Bovine Serum (FBS, Sigma-Aldrich), 100 units/ml penicillin and 100µg/ml streptomycin (P/S) at 37°C in an atmosphere with 5% CO2.
(§2) The cytotoxicity was evaluated via a colorimetric assay, using WST-1 (4-[3-(4-iodophenyl)-2-(4-nitrophenyl)-2H-5-tetrazolium]-1,3-benzene disulfonate) (Roche, Mannheim, Germany). The inhibition of the cell proliferation is expressed as a percentage of the absorbance at 450nm relative to the non-treated cells in culture. The absorbance was measured by an Enspire microplate reader (PerkinElmer, Wellesley, MA, USA).
(§3) The compound 1 was tested on the two cell lines of human glioblastoma multiforme ANGM-CSS and U118MG, which are resistant to temozolomide.

U118-MG = assay: cell viability / cytotoxicity by WST-1 colorimetric assay in U118-MG; settings: alone, 10µM and 100µM
Experimental: as §1, §2, §3

U87MG cells = assay: cell viability by MTS assay in U87MG cells; settings: 72 hours
Experimental: The human cells of glioblastoma multiforme U87MG were obtained from the national cancer research institute in Genoa (Italy) and were monitored to determine the DNA profiling. The U87MG cells were cultivated in RPMI medium with the addition of 10% FBS, 2 mM of L-glutamine, 100 U/ml of penicillin, […] of streptomycin and 1% of non-essential amino acids at 37°C in 5% CO2. The cells were used in the successive experiments up to the fourth detaching passage.
The U87MG cells were grown at 37°C in a humid atmosphere in the presence of 5% CO2. and were placed in a plate at a density of 3,000 cells/well. After 24 hours, the culture medium was replaced with fresh culture medium containing different concentrations of the compound 9 solubilized in DMSO. After 72 hours, the cell viability was assayed by means of MTS assay according to the manufacturer's instructions. […] The formazan formed is determined via reading of the absorbance at 490 nm measured with an automated plate reader (Victor Wallac 2, Perkin Elmer). […] The results were calculated by subtracting the mean background value from the values obtained from each evaluation and were expressed as a control percentage (non-treated cells). […] At the end of the treatments, the cell viability was determined by means of MTS assay.

| Compound | cell viability (ANGM-CSS; 10µM) | cell viability (ANGM-CSS; 100 µM) | cell viability (U118-MG) | cell viability (U87MG cells; compound alone at 100 nM, 500 nM, 1 µM) | minimal effective concentration (U87MG cells; Homo sapiens, U-87 MG, compound alone, read-out: concentration from which the effect on cell viability is significant) [µM] |
| --- | --- | --- | --- | --- | --- |
| COc1cc2c(cc1OC)CN(CC(=O)Nc1ccc3c(c1)/C(=C/c1cccs1)C(=O)N3)CC2 [compound 1, N-[(3Z)-(2-oxo-3-(thiophene-2-ylmethylene)-2,3-dihydro-1H-indol-5-yl]-2-(6,7-dimethoxy-3,4-dihydroisoquinol-2-(1H)-yl)-acetamide hydrochloride] | no significant effect on cell viability | significant reduction in cell viability | significant reduction of cell viability | – | – |
| Cc1ccc(S(=O)(=O)Nc2ccc3c(c2)/C(=C/c2cnc[nH]2)C(=O)N3)cc1 [compound 9, N-[(3Z)-3-(1H-imidazol-5-ylmethylidene)-2-oxo-2,3-dihydro-1H-indol-5-yl]-4-methylbenzenesulfonamide] | – | – | – | inhibits cell viability, in a concentration-dependent way | ≥ 0.5 |

Source: patent publication EP3204002B1, “PHARMACEUTICAL COMBINATION FOR THE TREATMENT OF TUMORS” (International Society for Drug Development S.r.l., priority 2014, dated 2016)
